# Reference: US8962608B2, “Cycloalkylnitrile pyrazole carboxamides as janus kinase inhibitors” (Merck Sharp & Dohme Corp., priority 2011, dated 2015)
# Assays:
# [1] = biological target: JAK1 (recombinant purified GST-tagged catalytic domain) (Homo sapiens (Human), UniProt P23458); assay: biochemical;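 further: biochemical assay with HTRF read-out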
# [2] = biological target: JAK2 (recombinant purified GST-tagged catalytic domain) (Homo sapiens (Human), UniProt O60674); assay: biochemical;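 further: biochemical JAK kinase assay with HTRF detection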
# Sequence of JAK2 (recombinant purified GST-tagged catalytic domain) (O60674 849-1124): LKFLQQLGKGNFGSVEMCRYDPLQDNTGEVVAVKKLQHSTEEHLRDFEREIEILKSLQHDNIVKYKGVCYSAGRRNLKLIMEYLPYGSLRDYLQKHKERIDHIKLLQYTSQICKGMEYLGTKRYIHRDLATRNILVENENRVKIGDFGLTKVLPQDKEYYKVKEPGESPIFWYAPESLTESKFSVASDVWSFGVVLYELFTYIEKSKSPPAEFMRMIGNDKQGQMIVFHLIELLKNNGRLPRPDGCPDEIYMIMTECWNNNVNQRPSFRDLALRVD
# Sequence of JAK1 (recombinant purified GST-tagged catalytic domain) (P23458 875-1153): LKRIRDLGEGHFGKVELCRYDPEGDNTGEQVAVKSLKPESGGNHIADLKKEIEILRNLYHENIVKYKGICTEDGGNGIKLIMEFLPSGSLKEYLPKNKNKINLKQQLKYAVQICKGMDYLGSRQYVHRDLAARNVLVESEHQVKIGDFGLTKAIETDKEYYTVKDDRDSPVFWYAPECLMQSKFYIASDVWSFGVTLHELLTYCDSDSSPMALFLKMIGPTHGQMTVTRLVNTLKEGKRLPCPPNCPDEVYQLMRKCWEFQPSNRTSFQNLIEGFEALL
IC50 [1] [nM],IC50 [2] [nM],SMILES
11,36,"N#Cc1ccc(Nc2nn([C@H]3CCCC[C@H]3C#N)cc2C(N)=O)cc1 (racemic) [Example 17-16, 1-[(1S,2R and 1R,2S)-2-cyanocyclohexyl]-3-[(4-cyanophenyl)amino]-1H-pyrazole-4-carboxamide]"
0.5,1,"CC(=O)N1CCN(S(=O)(=O)c2ccc(Nc3nn([C@H]4CCCC[C@@H]4C#N)cc3C(N)=O)cc2)CC1 (single isomer, unassigned) [Example 17-89, 3-({4-[(4-acetylpiperazin-1-yl)sulfonyl]phenyl}amino)-1-[(1R,2R or 1S,2S)-2-cyanocyclohexyl]-1H-pyrazole-4-carboxamide]"
7,39,"N#C[C@H]1CCCC[C@@H]1n1cc(C(N)=O)c(Nc2cncc(Cl)c2)n1 (single isomer, unassigned) [Example 17-47, 3-[(5-chloropyridin-3-yl)amino]-1-[(1S,2S or 1R,2R)-2-cyanocyclohexyl]-1H-pyrazole-4-carboxamide]"
9,24,"COc1cccc(N2CCN(S(=O)(=O)c3ccc(Nc4nn([C@H]5CCCC[C@@H]5C#N)cc4C(N)=O)cc3)CC2)c1 (single isomer, unassigned) [Example 17-97, 1-[(1R,2R or 1S,2S)-2-cyanocyclohexyl]-3-[(4-{[4-(3-methoxyphenyl)piperazin-1-yl]sulfonyl}phenyl)amino]-1H-pyrazole-4-carboxamide]"
7,40,"N#Cc1ncc(Nc2nn([C@H]3CCCC[C@@H]3C#N)cc2C(N)=O)cc1F (single isomer, unassigned) [Example 17-79, 1-[(1R,2R or 1S,2S)-2-cyanocyclohexyl]-3-[(6-cyano-5-fluoropyridin-3-yl)amino]-1H-pyrazole-4-carboxamide]"
2,110,"N#C[C@H]1C[C@H](N2CCC2)CC[C@@H]1n1cc(C(N)=O)c(Nc2ccc(Cl)cc2)n1 (single isomer, unassigned) [Example 28-109, 1-[(1S,2S,4R or 1R,2R,4S)-4-azetidin-1-yl-2-cyanocyclohexyl]-3-[(4-chlorophenyl)amino]-1H-pyrazole-4-carboxamide]"
1,6,"CN([C@H]1CC[C@H](n2cc(C(N)=O)c(Nc3ccc(Cl)cc3)n2)[C@@H](C#N)C1)S(C)(=O)=O (racemic) [Example 38-6, 3-[(4-chlorophenyl)amino]-1-{(1S,2S,4R and 1R,2R,4S)-2-cyano-4-[methyl(methylsulfonyl)amino]cyclohexyl}-1H-pyrazole-4-carboxamide]"
0.3,33,"C[N+]1([C@H]2CC[C@H](n3cc(C(N)=O)c(Nc4ccc(C(F)(F)F)cc4)n3)[C@@H](C#N)C2)CCC1 (single isomer, unassigned) [Example 31-1, 1-((1S,3S,4S or 1R,3R,4R)-4-(4-carbamoyl-3-((4-(trifluoromethyl)phenyl)amino)-1H-pyrazol-1-yl)-3-cyanocyclohexyl)-1-methylazetidin-1-ium 2,2,2-trifluoroacetate]"
1,41,"CC(C)(CO)N[C@H]1CCC(n2cc(C(N)=O)c(Nc3ccc(Cl)cc3)n2)[C@@H](C#N)C1 (single isomer, unassigned) [Example 28-210, 3-[(4-chlorophenyl)amino]-1-{(1S,2S,4S or 1R,2R,4R)-2-cyano-4-[(2-hydroxy-1,1-dimethylethyl)amino]cyclo-hexyl}-1H-pyrazole-4-carboxamide]"
0.6,39,"N#C[C@H]1C[C@@H](NC(C2CC2)C2CC2)CC[C@@H]1n1cc(C(N)=O)c(Nc2ccc(S(=O)(=O)C(F)(F)F)cc2)n1 (single isomer, unassigned) [Example 28-180, 1-{(1S,2S,4S or 1R,2R,4R)-2-cyano-4-[(dicyclopropyl-methyl)amino]cyclohexyl}-3-({4-[(trifluoro-methyl)sulfonyl]phenyl}amino)-1H-pyrazole-4-carboxamide]"
0.9,40,"CC1(C)CN([C@H]2CC[C@H](n3cc(C(N)=O)c(Nc4ccccc4)n3)[C@@H](C#N)C2)C1 (single isomer, unassigned) [Example 28-138, 1-[(1S,2S,4S or 1R,2R,4R)-2-cyano-4-(3,3-dimethylazetidin-1-yl)cyclohexyl]-3-(phenylamino)-1H-pyrazole-4-carboxamide]"
0.95,11,"N#C[C@H]1CCCC[C@@H]1n1cc(C(N)=O)c(Nc2ccc(Cl)cc2)n1 (single isomer, unassigned) [Example 17-107, 3-[(4-chlorophenyl)amino]-1-[(1S,2S or 1R,2R)-2-cyanocyclohexyl]-1H-pyrazole-4-carboxamide]"
0.3,9,"CC1(O)CN([C@@H]2CC[C@H](n3cc(C(N)=O)c(Nc4ccc(C(F)(F)F)cc4)n3)[C@@H](C#N)C2)C1 (single isomer, unassigned) [Example 28-199, 1-[(1S,2S,4R or 1R,2R,4S)-2-cyano-4-(3-hydroxy-3-methylazetidin-1-yl)cyclohexyl]-3-{[4-(trifluoromethyl)phenyl]amino}-1H-pyrazole-4-carboxamide]"
0.45,23,"N#C[C@H]1C[C@@H](NCC2(O)CC2)CC[C@@H]1n1cc(C(N)=O)c(Nc2ccc(C(F)(F)F)cc2)n1 (single isomer, unassigned) [Example 28-23, 1-[(1S,2S,4S or 1R,2R,4R)-2-cyano-4-{[(1-hydroxycyclo-propyl)methyl]amino}cyclo-hexyl]-3-{[4-(trifluoromethyl)phenyl]amino}-1H-pyrazole-4-carboxamide]"
5,60,"N#C[C@H]1CCCC(F)[C@@H]1n1cc(C(N)=O)c(Nc2ccccc2)n1 (mixture of isomers) [Example 23-1, 1-[(1R,2S and 1S,2R)-2-Cyano-6-fluorocyclohexyl]-3-(phenylamino)-1H-pyrazole-4-carboxamide]"
6,76,"N#C[C@@H]1C[C@H](OCC2CC2)CC[C@H]1n1cc(C(N)=O)c(Nc2ccnc(F)c2)n1 (single isomer, unassigned) [Example 26-2, 1-[(1R,2R,4R or 1S,2S,4S)-2-cyano-4-(cyclopropylmethoxy)cyclohexyl]-3-[(2-fluoropyridin-4-yl)amino]-1H-pyrazole-4-carboxamide]"
2,67,"N#C[C@H]1C[C@@H](N[C@H](C2CC2)C(F)(F)F)CC[C@@H]1n1cc(C(N)=O)c(Nc2ccc(C(F)(F)F)cc2)n1 (single isomer, unassigned) [Example 28-192, 1-[(1S,2S,4S or 1R,2R,4R)-2-cyano-4-{[(1S)-1-cyclopropyl-2,2,2-trifluoroethyl]amino}cyclo-hexyl]-3-{[4-(trifluoromethyl)phenyl]amino}-1H-pyrazole-4-carboxamide]"
2,18,"N#C[C@H]1CC(N2CC[C@@H](F)C2)CC[C@@H]1n1cc(C(N)=O)c(Nc2ccc(S(=O)(=O)C(F)(F)F)cc2)n1 (single isomer, unassigned) [Example 28-159, 1-{(1S,2S or 1R,2R)-2-cyano-4-[(3R)-3-fluoropyrrolidin-1-yl]cyclohexyl}-3-({4-[(trifluoro-methyl)sulfonyl]phenyl}amino)-1H-pyrazole-4-carboxamide]"
1,16,"N#C[C@H]1CC(N(C2CC2)C2CC2)CC[C@@H]1n1cc(C(N)=O)c(Nc2ccc(S(=O)(=O)C(F)(F)F)cc2)n1 (single isomer, unassigned) [Example 28-181, 1-[(1S,2S or 1R,2R)-2-cyano-4-(dicyclopropylamino)cyclohexyl]-3-({4-[(trifluoro-methyl)sulfonyl]phenyl}amino)-1H-pyrazole-4-carboxamide]"
0.8,13,"N#C[C@H]1C[C@@H](CF)CC[C@@H]1n1cc(C(N)=O)c(Nc2ccnc(F)c2)n1 (racemic) [Example 37, 1-[(1S,2S,4S and 1R,2R,4R)-2-Cyano-4-(fluoromethyl)cyclohexyl]-3-[(2-fluoropyridin-4-yl)amino]-1H-pyrazole-4-carboxamide]"
30,67,"N#C[C@@H]1CCCC[C@H]1n1cc(C(N)=O)c(Nc2ccc(S(=O)(=O)N3CCC(Cc4ccccc4)CC3)cc2)n1 (single isomer, unassigned) [Example 17-69, 3-({4-[(4-benzylpiperidin-1-yl)sulfonyl]phenyl}amino)-1-[(1R,2R or 1S,2S)-2-cyanocyclohexyl]-1H-pyrazole-4-carboxamide]"
13,136,"N#C[C@@H]1C[C@H](C(=O)NC2CC(F)(F)C2)CC[C@H]1n1cc(C(N)=O)c(Nc2ccc(Cl)cc2)n1 (single isomer, unassigned) [Example 35-18, 3-[(4-chlorophenyl)amino]-1-{(1R,2R,4R or 1S,2S,4S)-2-cyano-4-[(3,3-difluorocyclobutyl)carbamoyl]cyclohexyl}-1H-pyrazole-4-carboxamide]"
17,93,"N#C[C@H]1CCCC[C@@H]1n1cc(C(N)=O)c(Nc2ccc(Cl)c(Cl)c2)n1 (single isomer, unassigned) [Example 17-49, 1-[(1S,2S or 1R,2R)-2-cyanocyclohexyl]-3-[(3,4-dichlorophenyl)amino]-1H-pyrazole-4-carboxamide]"
0.25,3,"N#C[C@H]1C[C@H](O)CC[C@@H]1n1cc(C(N)=O)c(Nc2ccc([C@H](O)C(F)(F)F)cc2)n1 (single isomer, unassigned) [Example 25-13, 1-[(1S,2S,4R or 1R,2R,4S)-2-cyano-4-hydroxycyclohexyl]-3-({4-[(1S or 1R)-2,2,2-trifluoro-1-hydroxyethyl]phenyl}amino)-1H-pyrazole-4-carboxamide]"

SMILES,IC50 [1] [nM],IC50 [2] [nM]
"N#C[C@H]1C[C@@H](NCC(F)F)CC[C@@H]1n1cc(C(N)=O)c(Nc2ccc(Cl)c(F)c2)n1 (single isomer, unassigned) [Example 28-90, 3-[(4-chloro-3-fluorophenyl)amino]-1-{(1S,2S,4S or 1R,2R,4R)-2-cyano-4-[(2,2-difluoroethyl)amino]cyclohexyl}-1H-pyrazole-4-carboxamide]",4,35
